This note sets out measurements from patent US10954240B2, “Compounds inhibiting leucine-rich repeat kinase enzyme activity” (Merck Sharp & Dohme Corp., priority 2014, dated 2021).

A short description of data set [1]: Rat pharmacokinetics, oral AUC. It is filed as in vivo. To be noted: single oral dose 10 mpk, plasma; for AUC: 10 mg/kg. From the text: Representative Example of a Pharmacokinetic Measurement
The pharmacokinetics of a compound of the invention (amorphous free form) can be studied following single intravenous and/or oral administration to mouse, rat, dog and/or monkey. In the present study, the pharmacokinetics of selected compounds of the invention (amorphous free form) were studied following single intravenous and/or oral administration to rat. The IV solution formulations contained 30% captisol/70% water or 1/1 DMSO/PEG-400. The PO solution formulations contained 10% tween/90% PEG-400 or 40% PEG-400/25% of a aqueous HPBCD solution (20%)/35% water. All IV formulations were given as solutions and all PO doses were given as well-behaved suspensions or solutions. Animals were fasted prior to oral dosing in single-dose studies. Oral bioavailability was estimated using non-cross-over study designs (n=2 or 3). Plasma samples were assayed using protein precipitation with acetonitrile/methanol (90/10, v/v) followed by HPLC/MS/MS analysis employing positive-ion Turbo IonSpray ionization. Plasma concentration-time data were analyzed by non-compartmental methods and expressed as AUC (area under the curve) values. Holding dose constant, higher oral AUC values represent greater oral plasma exposure.
The tables above provide oral AUC values for example 1, 8, 12, 17, and 20, in which the compound was dosed in rats at 10 mpk via a method similar to that described above.

The target of data set [2] is LRRK2 (G2019S mutation, GST-LRRK2 (amino acids 970-2527)) (Homo sapiens (Human), UniProt Q5S007, G2019S). The experiment in a line: LRRK2 Km ATP LanthaScreen Assay. The format is biochemical. The following applies: mean IC50 of several test results. From the text: Unless otherwise noted, all LRRK2 IC50 data presented in tables refers to the LRRK2 Km ATP LanthaScreen™ Assay that is described in the Biological Assay section.
Chain of LRRK2 (G2019S mutation, GST-LRRK2 (amino acids 970-2527)) (Q5S007 970-2527 G2019S): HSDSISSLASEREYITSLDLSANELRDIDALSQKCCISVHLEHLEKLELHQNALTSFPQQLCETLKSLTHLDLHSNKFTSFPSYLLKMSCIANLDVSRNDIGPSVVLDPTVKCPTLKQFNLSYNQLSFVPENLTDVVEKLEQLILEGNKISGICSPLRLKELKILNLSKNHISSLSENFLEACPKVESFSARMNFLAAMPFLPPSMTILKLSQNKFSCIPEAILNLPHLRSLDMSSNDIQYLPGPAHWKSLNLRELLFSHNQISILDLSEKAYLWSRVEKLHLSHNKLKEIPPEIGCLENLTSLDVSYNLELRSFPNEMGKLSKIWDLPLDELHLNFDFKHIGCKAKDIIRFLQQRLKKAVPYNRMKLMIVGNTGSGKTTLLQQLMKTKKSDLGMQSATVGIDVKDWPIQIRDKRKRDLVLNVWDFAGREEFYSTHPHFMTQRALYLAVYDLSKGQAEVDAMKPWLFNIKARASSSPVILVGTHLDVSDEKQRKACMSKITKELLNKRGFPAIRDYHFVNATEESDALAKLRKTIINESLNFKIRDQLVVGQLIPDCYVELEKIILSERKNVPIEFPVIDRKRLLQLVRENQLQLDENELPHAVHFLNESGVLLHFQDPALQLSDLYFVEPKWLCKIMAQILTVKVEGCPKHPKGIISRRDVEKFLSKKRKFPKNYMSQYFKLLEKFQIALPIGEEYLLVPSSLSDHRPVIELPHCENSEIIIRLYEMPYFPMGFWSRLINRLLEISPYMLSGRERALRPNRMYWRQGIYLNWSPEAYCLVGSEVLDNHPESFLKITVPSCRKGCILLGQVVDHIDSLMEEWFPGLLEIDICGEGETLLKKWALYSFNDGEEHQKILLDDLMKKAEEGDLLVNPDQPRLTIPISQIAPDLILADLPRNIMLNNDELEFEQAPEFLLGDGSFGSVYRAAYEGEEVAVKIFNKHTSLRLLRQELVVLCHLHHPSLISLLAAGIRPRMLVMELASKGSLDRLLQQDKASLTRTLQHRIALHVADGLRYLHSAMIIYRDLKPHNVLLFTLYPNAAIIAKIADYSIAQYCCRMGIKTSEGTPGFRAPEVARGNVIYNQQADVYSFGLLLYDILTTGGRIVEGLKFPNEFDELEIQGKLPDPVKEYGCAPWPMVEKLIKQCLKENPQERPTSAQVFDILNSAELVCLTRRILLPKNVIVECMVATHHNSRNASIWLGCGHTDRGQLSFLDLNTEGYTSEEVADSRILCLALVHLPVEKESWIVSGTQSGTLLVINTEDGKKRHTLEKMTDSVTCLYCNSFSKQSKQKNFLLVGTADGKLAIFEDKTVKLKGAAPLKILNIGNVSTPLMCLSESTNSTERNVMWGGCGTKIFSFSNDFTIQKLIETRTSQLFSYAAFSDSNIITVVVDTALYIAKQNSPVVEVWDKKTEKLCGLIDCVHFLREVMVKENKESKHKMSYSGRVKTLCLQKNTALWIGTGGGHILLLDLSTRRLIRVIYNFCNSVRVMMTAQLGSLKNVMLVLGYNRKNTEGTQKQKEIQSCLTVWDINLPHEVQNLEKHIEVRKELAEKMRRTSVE
The data presented for the Km ATP LanthaScreen™ Assay represents mean IC50 values based on several test results and may have reasonable deviations depending on the specific conditions and reagents used. Reagents for the LRRK2 Km ATP LanthaScreen™ Assay were purchased from Life Technologies Corporation.
LRRK2 Km ATP LanthaScreen™ Assay
a) 400 nl of a 1:2.15 serial dilution of test compound (98 μM top assay concentration) is spotted via Labcyte Echo to certain wells in a 384 well black, untreated plate. Control wells contain 400 nl of either DMSO or 400 nl of a known inhibitor in DMSO.
c) A 30 minute room temperature incubation is followed by addition of 10 μl of 800 nM fluorescein labeled LRRKtide peptide substrate and 186 μM ATP solution in 1× assay buffer to all wells.
d) After a 60 minute room temperature incubation, 20 μl of TR-FRET Dilution Buffer (Invitrogen PV3756B) containing 4 nM Tb-labeled anti-phospho LRRKtide antibody and 20 mM EDTA is added to all wells.
e) Plates are incubated at room temperature for 1 hour and read on an Envision™ multi-mode plate reader with LanthaScreen™ settings. Results are analysed using Assay Data Analyzer.
A general note: Time-resolved FRET reads energy transfer from a long-lived donor to a nearby acceptor.

As usually defined, the AUC is concentration integrated over time. A low value points to low exposure. In general, pIC50 refers to −log10 of the IC50, conventionally taken in molar units. Read a low pIC50 as a large IC50.

pIC50: −log10 of the molar value.

For `Cn1cc(-c2ccc3cnn(-c4ccnc(N5CCOCC5)c4)c3c2)cn1` [Example 1, 4-(4-(6-(1-methyl-1H-pyrazol-4-yl)-1H-indazol-1-yl)pyridin-2-yl)morpholine], in data set [1], the AUC is 2.1 µM·h and the “Rat AUC 10 mpk PO” value was 2.1 ± 0.09 µM·h.
In data set [2], `Cn1cc(-c2ccc3cnn(-c4ccnc(N5CCN(S(C)(=O)=O)CC5)c4)c3c2)cn1` [Example 8, 6-(1-methyl-1H-pyrazol-4-yl)-1-(2-(4-(methylsulfonyl)piperazin-1-yl)pyridin-4-yl)-1H-indazole] had a pIC50 of 7.35. In data set [1], the AUC is 41 µM·h and the “Rat AUC 10 mpk PO” value stood at 41 ± 26 µM·h.
Consider `CN(C)C(=O)CN1CCN(c2cc(-n3ncc4ccc(-c5cnn(C)c5)cc43)ccn2)CC1` [Example 20, N,N-dimethyl-2-(4-(4-(6-(1-methyl-1H-pyrazol-4-yl)-1H-indazol-1-yl)pyridin-2-yl)piperazin-1-yl)acetamide], for which the pIC50 in data set [2] was 7.47. Moreover, in data set [1], the AUC came to 1 µM·h and the “Rat AUC 10 mpk PO” value came out at 1.0 ± 0.19 µM·h.
In turn, `Cn1cc(-c2ccc3cnn(-c4ccnc(N5CC[C@@H](F)C5)c4)c3c2)cn1` [Example 12, (R)-1-(2-(3-fluoropyrrolidin-1-yl)pyridin-4-yl)-6-(1-methyl-1H-pyrazol-4-yl)-1H-indazole] gave a pIC50 in data set [2] of 7.05. This molecule showed an AUC in data set [1] of 0.82 µM·h.
In data set [2], `CC(C)Oc1ccc2cnn(-c3ccnc(N4CCN(CC5CCC5)CC4)c3)c2c1` [Example 27, 1-(2-(4-(cyclobutylmethyl)piperazin-1-yl)pyridin-4-yl)-6-isopropoxy-1H-indazole] showed a pIC50 of 6.44.
The same measure, in the same setting: as for `CC(C)Oc1ccc2cnn(-c3ccnc(N4CCN(C)CC4)c3)c2c1` [Example 35, 6-isopropoxy-1-(2-(4-methylpiperazin-1-yl)pyridin-4-yl)-1H-indazole], the figure is 6.74.
The same measure, in the same setting: under `CC(C)Oc1ccc2cnn(-c3ccnc(N4CCOC(CCO)C4)c3)c2c1` (stereo not drawn) [Example 25, 2-(4-(4-(6-isopropoxy-1H-indazol-1-yl)pyridin-2-yl)morpholin-2-yl)ethanol] stands 6.39; under `CS(=O)(=O)N1CCN(c2cc(-n3ncc4ccc(-c5cn[nH]c5)cc43)ncn2)CC1` [Example 66, 1-{6-[4-(methylsulfonyl)piperazin-1-yl]pyrimidin-4-yl}-6-(1H-pyrazol-4-yl)-1H-indazole], 7.17; under `Cn1cc(-c2ccc3cnn(-c4ccnc(N5CCCC5)c4)c3c2)cn1` [Example 46, 6-(1-methyl-1H-pyrazol-4-yl)-1-(2-(pyrrolidin-1-yl)pyridin-4-yl)-1H-indazole], 7.13.
The same measure, in the same setting: as for `CC(C)Oc1ccc2cnn(-c3ccnc(N4CC(C(C)(C)O)C4)c3)c2c1` [Example 30, 2-(1-(4-(6-isopropoxy-1H-indazol-1-yl)pyridin-2-yl)azetidin-3-yl)propan-2-ol], the figure is 6.38.
Consider `CS(=O)(=O)N1CCN(c2cc(-n3ncc4ccc(-c5cccnc5)cc43)ncn2)CC1` [Example 62, 1-{6-[4-(methylsulfonyl)piperazin-1-yl]pyrimidin-4-yl}-6-pyridin-3-yl-1H-indazole], for which the pIC50 in data set [2] was 6.31.
Still for that read-out and setting: under `Cn1cc(-c2ccc3cnn(-c4ccnc(N5CCN(CCO)CC5)c4)c3c2)cn1` [Example 55, 2-(4-(4-(6-(1-methyl-1H-pyrazol-4-yl)-1H-indazol-1-yl)pyridin-2-yl)piperazin-1-yl)ethanol] stands 7.15.
On the same count and under the same terms, under `c1cc(-c2ccc3cnn(-c4cc(N5CCOCC5)ncn4)c3c2)[nH]n1` [Example 69, 1-(6-morpholin-4-ylpyrimidin-4-yl)-6-(1H-pyrazol-5-yl)-1H-indazole] stands 7.98.
Same read-out and setting: under `CN1CCN(c2cc(-n3ncc4ccc(-c5cnn(C)c5)cc43)ccn2)CC1=O` [Example 10, 1-methyl-4-(4-(6-(1-methyl-1H-pyrazol-4-yl)-1H-indazol-1-yl)pyridin-2-yl)piperazin-2-one] stands 6.90; under `c1cncc(-c2ccc3cnn(-c4cc(N5CCOCC5)ncn4)c3c2)c1` [Example 67, 1-(6-morpholin-4-ylpyrimidin-4-yl)-6-pyridin-3-yl-1H-indazole], 6.89; under `CC(C)Oc1ccc2cnn(-c3ccnc(N4CCC4)c3)c2c1` [Example 26, 1-(2-(azetidin-1-yl)pyridin-4-yl)-6-isopropoxy-1H-indazole], 6.23.
In data set [2], `CC(C)Oc1ccc2cnn(-c3ccnc(N4CCO[C@@H](C)C4)c3)c2c1` [Example 28, (S)-4-(4-(6-isopropoxy-1H-indazol-1-yl)pyridin-2-yl)-2-methylmorpholine] gave a pIC50 of 6.21.
Same read-out and setting: under `COC1CCCN(c2cc(-n3ncc4ccc(OC(C)C)cc43)ccn2)C1` (stereo not drawn) [Example 36, 6-isopropoxy-1-(2-(3-methoxypiperidin-1-yl)pyridin-4-yl)-1H-indazole] stands 6.22.
Turning to `COc1ccncc1-c1ccc2cnn(-c3ccnc(N4CCOCC4)c3)c2c1` [Example 17, 4-(4-(6-(4-methoxypyridin-3-yl)-1H-indazol-1-yl)pyridin-2-yl)morpholine], the pIC50 in data set [2] was 7.37. In data set [1], the area under the curve (AUC) was determined as 10 µM·h and the “Rat AUC 10 mpk PO” value amounted to 10 ± 2.5 µM·h.
Consider `CC(C)Oc1ccc2cnn(-c3ccnc(N4CCO[C@H](C)C4)c3)c2c1` [Example 29, (R)-4-(4-(6-isopropoxy-1H-indazol-1-yl)pyridin-2-yl)-2-methylmorpholine], for which the pIC50 in data set [2] was 6.31.
For the molecule `Cn1cc(-c2ccc3cnn(-c4ccnc(N5CCn6ccnc6C5)c4)c3c2)cn1` [Example 52, 7-(4-(6-(1-methyl-1H-pyrazol-4-yl)-1H-indazol-1-yl)pyridin-2-yl)-5,6,7,8-tetrahydroimidazo[1,2-a]pyrazine], the pIC50 in data set [2] was 6.72.
The same measure, in the same setting: under `COC1(C)CN(c2cc(-n3ncc4ccc(OC(C)C)cc43)ccn2)C1` [Example 41, 6-isopropoxy-1-(2-(3-methoxy-3-methylazetidin-1-yl)pyridin-4-yl)-1H-indazole] stands 6.05.
